For data set [1], the system named is spontaneously hypertensive rats (SHR). The data set can be described thus: Hypotensive action in spontaneously hypertensive rats (SHR). The class given is in vivo, rat. The note with it: male SHR, 20 weeks old; intravenous 100 μg/250 μl/kg in physiological saline; maximum decrease in blood pressure, difference from preadministration value. The procedure:
Hypotensive action in spontaneously hypertensive rats (SHR)
Three male SHRs at the age of 20 weeks in each group were anesthetized with pentobarbital (50 mg/kg, intraperitoneal administration); SP-10 and SP-45 polyethylene tubes (manufactured by Natsume Seisakusho, Japan) were inserted respectively into the groin artery and vein, and through each of these a cannula was passed to the neck site via the back subcutaneous tissue, and one end of the cannula was fixed there. The rats were used in experiments the following day. As a α-hANP derivatives, [Aib^6 ]-α-hANP[6-28] obtained in Example 1 and [Aib^6,Ile^12 ]-α-hANP[6-28] obtained in Example 8, and as a control, α-hANP[7-28], in solution in physiological saline, were each intravenously administered in the ratio of 100 μg/250 μl/kg of body weight. Hypotensive activities are shown as a degree of the maximum decrease in blood pressure (difference from the preadministration value) that occurred after the administration of the subject compound.

For data set [2] the following is noted: the molecule shown is the open-chain precursor, disulfide bond, 2 steps.
The mark [3] stands for this setting: 53-membered ring, air/NH4OAc/NH3 pH 6.9, water, 0.052 mM, 25.0 °C.
[4] abbreviates: 53-membered ring, air (after HF deprotection).

Read-outs that look alike come from different tables or passages of the source. Where a SMILES comes first, the peptide text is derived from it. Bridges are numbered along the chain shown (N, C = ends). [ ]: non-standard residue; d: D form. Aib = CC(C)(N)C(=O)O

These results are taken from US5159061A, “Atrial natriuretic peptide derivative” (Takeda Chemical Industries, Ltd., priority 1986, dated 1992).

As for `CC[C@H](C)[C@@H]1NC(=O)[C@H](CCCNC(=N)N)NC(=O)[C@H](CC(=O)O)NC(=O)[C@H]([C@@H](C)CC)NC(=O)[C@H](CCCNC(=N)N)NC(=O)CNC(=O)CNC(=O)[C@H](Cc2ccccc2)NC(=O)[C@@H](NC(=O)C(C)(C)N)CSSC[C@@H](C(=O)N[C@@H](CC(N)=O)C(=O)N[C@@H](CO)C(=O)N[C@@H](Cc2ccccc2)C(=O)N[C@@H](CCCNC(=N)N)C(=O)N[C@@H](Cc2ccc(O)cc2)C(=O)O)NC(=O)CNC(=O)[C@H](CC(C)C)NC(=O)CNC(=O)[C@H](CO)NC(=O)[C@H](CCC(N)=O)NC(=O)[C@H](C)NC(=O)CNC1=O` [[Aib^6, Ile^12]-α-hANP[6-28]] (H-[Aib]CFGGRIDRIGAQSGLGCNSFRY-OH; disulfide 2-18), in data set [1], the “Degree of Decrease in Blood Pressure” value is listed as -90 ΔmmHg.
Regarding `CC[C@H](C)[C@@H]1NC(=O)[C@H](CCCNC(=N)N)NC(=O)[C@H](CC(=O)O)NC(=O)[C@H](CCSC)NC(=O)[C@H](CCCNC(=N)N)NC(=O)CNC(=O)CNC(=O)[C@H](Cc2ccccc2)NC(=O)[C@@H](NC(=O)C(C)(C)N)CSSC[C@@H](C(=O)N[C@@H](CC(N)=O)C(=O)N[C@@H](CO)C(=O)N[C@@H](Cc2ccccc2)C(=O)N[C@@H](CCCNC(=N)N)C(=O)N[C@@H](Cc2ccc(O)cc2)C(=O)O)NC(=O)CNC(=O)[C@H](CC(C)C)NC(=O)CNC(=O)[C@H](CO)NC(=O)[C@H](CCC(N)=O)NC(=O)[C@H](C)NC(=O)CNC1=O` [[Aib^6]-α-hANP[6-28]] (H-[Aib]CFGGRMDRIGAQSGLGCNSFRY-OH; disulfide 2-18), the “Degree of Decrease in Blood Pressure” value in data set [1] is listed as -70 ΔmmHg.
Regarding “H-Achc-Cys-Phe-Gly-Gly-Arg-Met-Asp-Arg-Ile-Gly-Ala-Gln-Ser-Gly-Leu-Gly-Cys-Asn-Ser-Phe-Arg-Tyr-OH”, the ring closure, isolated yield in data set [2] (setting [3]) was 22%.
In data set [2] (setting [4]), “H-Aib-Cys-Phe-Gly-Gly-Arg-Leu-Asp-Arg-Ile-Gly-Ala-Gln-Ser-Gly-Leu-Gly-Cys-Asn-Ser-Phe-Arg-Tyr-OH” registered a ring closure, isolated yield of 22%.
In data set [2] (setting [3]), “H-Aib-Cys-Phe-Gly-Gly-Arg-Met-Asp-Arg-Ile-Gly-Ala-Gln-Ser-Gly-Leu-Gly-Cys-Asn-Ser-Phe-Arg-Tyr-OH” registered a ring closure, isolated yield of 12%.
For the molecule “H-Aib-Cys-Phe-Gly-Gly-Arg-Nle-Asp-Arg-Ile-Gly-Ala-Gln-Ser-Gly-Leu-Gly-Cys-Asn-Ser-Phe-Arg-Tyr-OH”, in data set [2] (setting [4]), the ring closure, isolated yield came out at 14.4%.
Regarding “H-Ala-Cys-Phe-Gly-Gly-Arg-Met-Asp-Arg-Ile-Gly-Ala-Gln-Ser-Gly-Leu-Gly-Cys-Asn-Ser-Phe-Arg-Tyr-OH”, in data set [2] (setting [4]), the ring closure, isolated yield was 14%.
As for “H-Cys-Phe-Ava-Arg-Met-Asp-Arg-Ile-Gly-Ala-Gln-Ser-Gly-Leu-Gly-Cys-Asn-Ser-Phe-Arg-Tyr-OH”, the ring closure, isolated yield in data set [2] (53-membered ring, air/NH4OAc/NH3 pH 6.9, water, 0.055 mM, 25.0 °C) stood at 30%.
As to “H-Cys-Phe-Gaba-Arg-Met-Asp-Arg-Ile-Gly-Ala-Gln-Ser-Gly-Leu-Gly-Cys-Asn-Ser-Phe-Arg-Tyr-OH”, in data set [2] (52-membered ring), the ring closure, isolated yield came to 20%.
For the molecule “H-Cys-Phe-Gly-Arg-Met-Asp-Arg-Ile-Gly-Ala-Gln-Ser-Gly-Leu-Gly-Cys-Asn-Ser-Phe-Arg-Tyr-OH”, in data set [2] (50-membered ring, air/NH4OAc/NH3 pH 6.9, water, 0.056 mM, 25.0 °C), the ring closure, isolated yield is 18%.
On to “H-Cys-Phe-Gly-Gly-Arg-DL-Chg-Asp-Arg-Ile-Gly-Ala-Gln-Ser-Gly-Leu-Gly-Cys-Asn-Ser-Phe-Arg-Tyr-OH”, for which, in data set [2] (setting [4]), the ring closure, isolated yield stood at 38%.
Still for that read-out and setting: to “H-Cys-Phe-Gly-Gly-Arg-Met-Asp-Arg-Ile-Gly-Ala-Gln-Ser-Gly-Leu-Gly-Cys-Asn-Ser-Phe-dArg-Tyr-OH” belongs 25%.
Consider “H-Cys-Phe-dAla-Gly-Arg-Met-Asp-Arg-Ile-Gly-Ala-Gln-Ser-Gly-Leu-Gly-Cys-Asn-Ser-Phe-Arg-Tyr-OH”, for which the ring closure, isolated yield in data set [2] (53-membered ring, air/NH4OAc/NH3 pH 6.9, water, 0.053 mM, 25.0 °C) is 16%.
“H-Cys-Phe-βAla-Arg-Met-Asp-Arg-Ile-Gly-Ala-Gln-Ser-Gly-Leu-Gly-Cys-Asn-Ser-Phe-Arg-Tyr-OH” displayed a ring closure, isolated yield in data set [2] (51-membered ring, air/NH4OAc/NH3 pH 6.9, water, 0.056 mM, 25.0 °C) of 17%.
In turn, “H-Ile-Cys-Phe-Gly-Gly-Arg-Met-Asp-Arg-Ile-Gly-Ala-Gln-Ser-Gly-Leu-Gly-Cys-Asn-Ser-Phe-Arg-Tyr-OH” registered a ring closure, isolated yield in data set [2] (setting [4]) of 11%.
Still for that read-out and setting: to “H-Val-Cys-Phe-Gly-Gly-Arg-Met-Asp-Arg-Ile-Gly-Ala-Gln-Ser-Gly-Leu-Gly-Cys-Asn-Ser-Phe-Arg-Tyr-OH” belongs 16%.
Still for that read-out and setting: the figure for “H-dAla-Cys-Phe-Gly-Gly-Arg-Met-Asp-Arg-Ile-Gly-Ala-Gln-Ser-Gly-Leu-Gly-Cys-Asn-Ser-Phe-Arg-Tyr-OH” is 17%.
